Measured values taken from patent US8106055B2, “Substituted amide compounds” (Gruenenthal GmbH, priority 2007, dated 2012).
Where two headings read alike, the source gives them in different places.

Assays:
[1] = target: T1, human bradykinin 1 receptor (B1R) (Homo sapiens, UniProt P46663); assay: Functional investigation on the human bradykinin 1 receptor (B1R), Ca2+ FLIPR assay in CHO K1 hB1R cells; type: cell-based; details: CHO-K1, B1R antagonism human, test substance 10 μM, read-out: B1R Ant. h [10 μM] % Inhibition
T1 construct: expressed in transfected cells; host or cells: CHO K1 cells
T1 sequence (P46663 1-353): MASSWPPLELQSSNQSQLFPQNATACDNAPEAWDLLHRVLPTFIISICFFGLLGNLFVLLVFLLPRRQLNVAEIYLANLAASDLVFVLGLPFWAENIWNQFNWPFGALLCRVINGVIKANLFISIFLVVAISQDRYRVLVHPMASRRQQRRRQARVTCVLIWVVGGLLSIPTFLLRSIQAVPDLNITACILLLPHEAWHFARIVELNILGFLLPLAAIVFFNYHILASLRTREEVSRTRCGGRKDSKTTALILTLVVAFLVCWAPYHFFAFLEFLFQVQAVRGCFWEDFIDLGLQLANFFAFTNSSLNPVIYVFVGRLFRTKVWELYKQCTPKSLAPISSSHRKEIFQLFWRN
In short: (§1)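 Peak Ca2+-dependent fluorescence in B1R-transfected CHO K1 cells measures antagonism of an EC80 agonist challenge given 10-20 min after compound. Agonist is Lys-Des-Arg9-bradykinin for human, Des-Arg9-bradykinin for rat receptor.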

[2] = target: T2, human μ opiate receptor (Homo sapiens, UniProt P35372); assay: Affinity for the human μ opiate receptor ([3H]-naloxone displacement, CHO-K1 receptor membrane preparation, SPA); type: binding; details: 1.5 h, test concentration 1 μM
T2 construct: purchased PerkinElmer Life Sciences, Zaventem, Belgium RB-HOM; host or cells: CHO-K1 cells (membrane preparation)
T2 sequence (P35372 whole entry): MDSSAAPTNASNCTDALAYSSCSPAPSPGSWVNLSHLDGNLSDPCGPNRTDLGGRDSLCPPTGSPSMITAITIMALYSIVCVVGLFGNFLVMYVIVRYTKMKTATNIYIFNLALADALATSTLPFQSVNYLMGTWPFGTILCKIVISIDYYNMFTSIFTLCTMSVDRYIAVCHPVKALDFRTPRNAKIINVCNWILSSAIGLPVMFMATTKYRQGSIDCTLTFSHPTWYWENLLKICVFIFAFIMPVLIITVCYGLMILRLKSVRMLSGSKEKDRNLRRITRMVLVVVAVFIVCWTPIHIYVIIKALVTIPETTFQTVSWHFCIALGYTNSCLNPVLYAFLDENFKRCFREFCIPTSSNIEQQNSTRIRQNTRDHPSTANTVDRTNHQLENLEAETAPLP
In short: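 At 1 μmol/l, compounds were scored for % displacement of 1 nmol/l [3H]-naloxone from CHO-K1-expressed human μ opiate receptor in a homogeneous SPA format (90 min, room temperature).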

[3] = target: T3, bradykinin 1 receptor (B1R) of the rat (Rattus norvegicus, UniProt P97583); assay: Functional investigation on the rat bradykinin 1 receptor (B1R), Ca2+ FLIPR assay in CHO K1 rB1R cells; type: cell-based; details: CHO-K1, B1R antagonism rat, test substance 10 μM, read-out: B1R Ant. r [10 μM] % Inhibition
T3 construct: expressed in transfected cells; host or cells: CHO K1 cells
T3 sequence (P97583 1-337): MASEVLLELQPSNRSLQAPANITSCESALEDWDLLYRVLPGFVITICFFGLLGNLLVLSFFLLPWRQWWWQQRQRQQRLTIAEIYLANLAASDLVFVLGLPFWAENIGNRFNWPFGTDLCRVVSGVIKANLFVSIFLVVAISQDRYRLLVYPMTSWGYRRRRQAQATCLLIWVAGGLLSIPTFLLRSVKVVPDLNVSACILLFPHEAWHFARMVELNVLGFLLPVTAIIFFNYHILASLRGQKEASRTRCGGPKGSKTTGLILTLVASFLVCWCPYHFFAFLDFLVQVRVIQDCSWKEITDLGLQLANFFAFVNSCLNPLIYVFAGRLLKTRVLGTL
In short: as §1

[4] = Table 3, to be read in the same way as Table 1, read-out: μ
[5] = % inhibition compared with the maximum achievable inhibition

## CN(CCOCC(=O)NC1CCC(C(c2ccccc2)N2CCCC2)CC1)S(=O)(=O)c1c(Cl)cc(C(F)(F)F)cc1Cl (stereo not drawn) [Example 630, 2-(2-(2,6-dichloro-N-methyl-4-(trifluoromethyl)phenylsulfonamido)ethoxy)-N-(4-(phenyl(pyrrolidin-1-yl)methyl)cyclohexyl)acetamide]
[1]; Ca2+ FLIPR, CHO K1 hB1R cells
  inhibition at 10 µM: 50%
[2]; [4]
  inhibition at 1 µM: 72%
[3]; Ca2+ FLIPR, CHO K1 rB1R cells
  inhibition at 10 µM: -11%

## CN1CCN(C(Cc2ccccc2)C2CCN(C(=O)COCC3CCc4ccccc4N3S(=O)(=O)c3ccc(Cl)c(Cl)c3)CC2)CC1 (stereo not drawn) [Example 812, 2-((1-(3,4-dichlorophenylsulfonyl)-1,2,3,4-tetrahydroquinolin-2-yl)methoxy)-1-(4-(1-(4-methylpiperazin-1-yl)-2-phenylethyl)piperidin-1-yl)ethanone]
[1]; [5]
  inhibition at 10 µM: 105%
[2]; [4]
  inhibition at 1 µM: 37%
[3]; [5]
  inhibition at 10 µM: 98%

## O=C(COCC1CCCN(S(=O)(=O)c2c(Cl)cc(Cl)cc2Cl)C1)NC1CCC(C(CCc2ccccc2)N2CCOCC2)CC1 (stereo not drawn) [Example 741, N-(4-(1-morpholino-3-phenylpropyl)cyclohexyl)-2-((1-(2,4,6-trichlorophenylsulfonyl)piperidin-3-yl)methoxy)acetamide]
[1]; Ca2+ FLIPR, CHO K1 hB1R cells
  inhibition at 10 µM: -5%
[2]; [4]
  inhibition at 1 µM: 16%
[3]; Ca2+ FLIPR, CHO K1 rB1R cells
  inhibition at 10 µM: 46%

## COc1cc(C)c(S(=O)(=O)N2CCCC(COCC(=O)NCC3CCC(C(c4ccccc4)N4CCOCC4)CC3)C2)c(C)c1 (stereo not drawn) [Example 744, 2-((1-(4-methoxy-2,6-dimethylphenylsulfonyl)piperidin-3-yl)methoxy)-N-((4-(morpholino(phenyl)methyl)cyclohexyl)methyl)acetamide]
[1]; Ca2+ FLIPR, CHO K1 hB1R cells
  inhibition at 10 µM: 18%
[2]; [4]
  inhibition at 1 µM: 13%
[3]; Ca2+ FLIPR, CHO K1 rB1R cells
  inhibition at 10 µM: 40%

## COc1cc(C)c(S(=O)(=O)N2CCCC2COCC(=O)NCC2CCC(C(c3ccccc3)N3CCCC3)CC2)c(C)c1 (stereo not drawn) [Example 649, 2-((1-(4-methoxy-2,6-dimethylphenylsulfonyl)pyrrolidin-2-yl)methoxy)-N-((4-(phenyl(pyrrolidin-1-yl)methyl)cyclohexyl)methyl)acetamide]
[1]; Ca2+ FLIPR, CHO K1 hB1R cells
  inhibition at 10 µM: 105%
[2]; [4]
  inhibition at 1 µM: 67%
[3]; Ca2+ FLIPR, CHO K1 rB1R cells
  inhibition at 10 µM: 106%

## COc1cc(C)c(S(=O)(=O)N2CCCCC2COCC(=O)NC2CCC(C(CCc3ccccc3)N3CCCCC3)CC2)c(C)c1 (stereo not drawn) [Example 734, 2-((1-(4-methoxy-2,6-dimethylphenylsulfonyl)piperidin-2-yl)methoxy)-N-(4-(3-phenyl-1-(piperidin-1-yl)propyl)cyclohexyl)acetamide]
[1]; Ca2+ FLIPR, CHO K1 hB1R cells
  inhibition at 10 µM: 104%
[2]; [4]
  inhibition at 1 µM: 80%
[3]; Ca2+ FLIPR, CHO K1 rB1R cells
  inhibition at 10 µM: 104%

## COc1cc(C)c(S(=O)(=O)N2CCCC(OCC(=O)NC3CCC(C(c4ccccc4)N4CCCC4)CC3)C2)c(C)c1 (stereo not drawn) [Example 647, 2-(1-(4-methoxy-2,6-dimethylphenylsulfonyl)piperidin-3-yloxy)-N-(4-(phenyl(pyrrolidin-1-yl)methyl)cyclohexyl)acetamide]
[1]; Ca2+ FLIPR, CHO K1 hB1R cells
  inhibition at 10 µM: 92%
[2]; [4]
  inhibition at 1 µM: 49%
[3]; Ca2+ FLIPR, CHO K1 rB1R cells
  inhibition at 10 µM: 94%

## COc1cc(C)c(S(=O)(=O)N(C)CCOCC(=O)NC2CCC(C(c3ccccc3)N3CCCC3)CC2)c(C)c1C (stereo not drawn) [Example 618, 2-{2-[(4-methoxy-2,3,6-trimethylbenzenesulfonyl)-methylamino]-ethoxy}-N-[4-(phenylpyrrolidin-1-yl-methyl)-cyclohexyl]-acetamide]
[1]; Ca2+ FLIPR, CHO K1 hB1R cells
  inhibition at 10 µM: 95%
[2]; Table 2, read-out: μ receptor
  inhibition at 1 µM: 43%
[3]; Ca2+ FLIPR, CHO K1 rB1R cells
  inhibition at 10 µM: 3%

## COc1cc(C)c(S(=O)(=O)N2CCCC(OCC(=O)NCC3CCC(C(c4ccccc4)N4CCOCC4)CC3)C2)c(C)c1 (stereo not drawn) [Example 730, 2-(1-(4-methoxy-2,6-dimethylphenylsulfonyl)piperidin-3-yloxy)-N-((4-(morpholino(phenyl)methyl)cyclohexyl)methyl)acetamide]
[1]; Ca2+ FLIPR, CHO K1 hB1R cells
  inhibition at 10 µM: 46%
[2]; [4]
  inhibition at 1 µM: 11%
[3]; Ca2+ FLIPR, CHO K1 rB1R cells
  inhibition at 10 µM: 38%

## CN1CCN(C(c2ccccc2)C2CCN(C(=O)COCC3CCc4ccccc4N3S(=O)(=O)c3ccc(Cl)c(Cl)c3)CC2)CC1 (stereo not drawn) [Example 810, 2-((1-(3,4-dichlorophenylsulfonyl)-1,2,3,4-tetrahydroquinolin-2-yl)methoxy)-1-(4-((4-methylpiperazin-1-yl)(phenyl)methyl)piperidin-1-yl)ethanone]
[1]; [5]
  inhibition at 10 µM: 102%
[2]; [4]
  inhibition at 1 µM: 19%
[3]; [5]
  inhibition at 10 µM: 97%

## CN(C)C(c1ccccc1)C1CCC(CNC(=O)COCC2CCCN2S(=O)(=O)c2c(Cl)cc(Cl)cc2Cl)CC1 (stereo not drawn) [Example 622, N-[4-(dimethylaminophenylmethyl)-cyclohexylmethyl]-2-[1-(2,4,6-trichlorobenzenesulfonyl)-pyrrolidin-2-ylmethoxy]-acetamide]
[1]; Ca2+ FLIPR, CHO K1 hB1R cells
  inhibition at 10 µM: 106%
[2]; Table 2, read-out: μ receptor
  inhibition at 1 µM: 96%
[3]; Ca2+ FLIPR, CHO K1 rB1R cells
  inhibition at 10 µM: 68%

## CN(CCOCC(=O)NCC1CCC(C(c2ccccc2)N2CCOCC2)CC1)S(=O)(=O)c1c(Cl)cccc1Cl (stereo not drawn) [Example 706, 2-(2-(2,6-dichloro-N-methylphenylsulfonamido)ethoxy)-N-((4-(morpholino(phenyl)methyl)cyclohexyl)methyl)acetamide]
[1]; Ca2+ FLIPR, CHO K1 hB1R cells
  inhibition at 10 µM: 77%
[2]; [4]
  inhibition at 1 µM: 7%
[3]; Ca2+ FLIPR, CHO K1 rB1R cells
  inhibition at 10 µM: 52%

## O=C(COC1CCCN(S(=O)(=O)c2c(Cl)cc(Cl)cc2Cl)C1)NC1CCC(C(c2ccccc2)N2CCOCC2)CC1 (stereo not drawn) [Example 691, N-(4-(morpholino(phenyl)methyl)cyclohexyl)-2-(1-(2,4,6-trichlorophenylsulfonyl)piperidin-3-yloxy)acetamide]
[1]; Ca2+ FLIPR, CHO K1 hB1R cells
  inhibition at 10 µM: 10%
[2]; [4]
  inhibition at 1 µM: 58%
[3]; Ca2+ FLIPR, CHO K1 rB1R cells
  inhibition at 10 µM: 6%

## O=C(COC1CCCN(S(=O)(=O)c2c(Cl)cc(Cl)cc2Cl)C1)NC1CCC(C(CCc2ccccc2)N2CCCCC2)CC1 (stereo not drawn) [Example 673, N-(4-(3-phenyl-1-(piperidin-1-yl)propyl)cyclohexyl)-2-(1-(2,4,6-trichlorophenylsulfonyl)piperidin-3-yloxy)acetamide]
[1]; Ca2+ FLIPR, CHO K1 hB1R cells
  inhibition at 10 µM: 57%
[2]; [4]
  inhibition at 1 µM: 71%
[3]; Ca2+ FLIPR, CHO K1 rB1R cells
  inhibition at 10 µM: 20%

## COc1cc(C)c(S(=O)(=O)N2CCCC(COCC(=O)NC3CCC(C(c4ccccc4)N4CCN(C)CC4)CC3)C2)c(C)c1 (stereo not drawn) [Example 702, 2-((1-(4-methoxy-2,6-dimethylphenylsulfonyl)piperidin-3-yl)methoxy)-N-(4-((4-methylpiperazin-1-yl)(phenyl)methyl)cyclohexyl)acetamide]
[1]; Ca2+ FLIPR, CHO K1 hB1R cells
  inhibition at 10 µM: 70%
[2]; [4]
  inhibition at 1 µM: 19%
[3]; Ca2+ FLIPR, CHO K1 rB1R cells
  inhibition at 10 µM: 74%

## COc1cc(C)c(S(=O)(=O)N(C)CCOCC(=O)NCC2CCC(C(c3ccccc3)N3CCOCC3)CC2)c(C)c1 (stereo not drawn) [Example 718, 2-(2-(4-methoxy-N,2,6-trimethylphenylsulfonamido)ethoxy)-N-((4-(morpholino(phenyl)methyl)cyclohexyl)methyl)acetamide]
[1]; Ca2+ FLIPR, CHO K1 hB1R cells
  inhibition at 10 µM: 105%
[2]; [4]
  inhibition at 1 µM: 4%
[3]; Ca2+ FLIPR, CHO K1 rB1R cells
  inhibition at 10 µM: 96%

## COc1cc(C)c(S(=O)(=O)N(C)CCOCC(=O)NC2CCC(C(c3ccccc3)N3CCN(C)CC3)CC2)c(C)c1 (stereo not drawn) [Example 682, 2-(2-(4-methoxy-N,2,6-trimethylphenylsulfonamido)ethoxy)-N-(4-((4-methylpiperazin-1-yl)(phenyl)methyl)cyclohexyl)acetamide]
[1]; Ca2+ FLIPR, CHO K1 hB1R cells
  inhibition at 10 µM: 104%
[2]; [4]
  inhibition at 1 µM: 36%
[3]; Ca2+ FLIPR, CHO K1 rB1R cells
  inhibition at 10 µM: 103%
